According to patent US20260022341A1, “METHOD OF GENERATING A HOMOCELLULAR PROGENITOR CELL CULTURE FROM A HETEROCELLULAR TISSUE SAMPLE” (MOSA MEAT B.V., priority 2022, published 2026):
“Also recorded” adds a separate entry of the source.

B1: vitronectin: extracellular matrix protein used as tissue culture vessel coating (protein, UniProt P04004 20-478, looked up)
Vitronectin: DQESCKGRCTEGFNVDKKCQCDELCSYYQSCCTDYTAECKPQVTRGDVFTMPEDEYTVYDDGEEKNNATVHEQVGGPSLTSDLQAQSKGNPEQTPVLKPEEEAPAPEVGASKPEGIDSRPETLHPGRPQPPAEEELCSGKPFDAFTDLKNGSLFAFRGQYCYELDEKAVRPGYPKLIRDVWGIEGPIDAAFTRINCQGKTYLFKGSQYWRFEDGVLDPDYPRNISDGFDGIPDNVDAALALPAHSYSGRERVYFFKGKQYWEYQFQHQPSQEECEGSSLSAVFEHFAMMQRDSWEDIFELLFWGRTSAGTRQPQFISRDWHGVPGQVDAAMAGRIYISGMAPRPSLAKKQRFRHRNRKGYRSQRGHSRGRNQNSRRPSRATWLSLFSSEESNLGANNYDDYRMDWLVPATCEPIQSVFFFSGDKYYRVNLRTRRVDTVDPPYPRSIAQYWLGCPAPGHL
B2: PDGF-bb: growth factor of the base medium (protein, UniProt P01127 82-190, looked up)
Platelet-derived growth …: SLGSLTIAEPAMIAECKTRTEVFEISRRLIDRTNANFLVWPPCVEVQRCSGCCNNRNVQCRPTQVQLRPVQVRKIEIVRKKPIFKKATVTLEDHLACKCETVAAARPVT

What was measured:
Format in all cases: cell-based, bovine
[1] = system: SCs and FAPs; assay: Compound screening: ratio of SCs in a cell culture of SCs and FAPs after one passage (flow cytometry); details: SFM1 base medium, HGF 10×=50 ng/ml, IC 50 μM, HC 138 nM, T3 30 nM, DAPT 5 or 10 μM, FGF2 10×=100 ng/ml, SB203580 10 μM, IL6 20 ng/ml, PDGF-bb 10×=50 ng/ml
Procedure: Excess visible fat and fibrous tissue was removed prior to dissociation, and muscle fibers were dissociated using collagenase AFC A (Worthington, CLSAFA, 2000U/ml) for 45 minutes at 37° C. Muscle isolates were incubated in 1× ACK erythrocyte lysis buffer for 1 minute at room temperature. Cells were resuspended in a serum-free proliferation medium (SFM1 medium) and immediately seeded into fibronectin (4 μg cm-2 bovine fibronectin; F1141, Merck/Sigma) coated tissue culture plates, and pre-cultured at 37° C. for 72 hours. The serum-free proliferation medium that was used is as disclosed in WO 2021/158103, the contents of which are incorporated herein by reference, and is referred to therein as “SFM1” and contains: albumin (5 mg/ml), somatotropin (2 ng/ml), L-Ascorbic acid 2-phosphate (50 μg/ml), hydrocortisone (36 ng/ml), a-linolenic acid (1 μg/ml), insulin (10 μg/ml), transferrin (5.5 μg/ml), sodium selenite (0.0067 μg/ml), ethanolamine (2 μg/ml), L-alanyl-L-glutamine or glutamine (2 mM), IL-6 (5 ng/ml), FGF2 also referred to as bFGF (10 ng/ml), IGF1 (100 ng/ml), VEGF (10 ng/ml), HGF (5 ng/ml), PDGF-bb (10 ng/ml) and DMEM/F12 basal medium. In the experiments described herein, the SFM1 medium is also referred to as control (Ctrl) or base medium.
After 72 hours of pre-culture, FAPS were sorted using a MACSQuant Tyto sorter (Miltenyi) based on absence of expression of JAM1, CD45, and integrin alpha 7 (ITGA7), and the positive expression of integrin alpha 5 (ITGA5). SCs were sorted based on the absence of expression of JAM1, CD45, ITGA5, and the positive expression of ITGA7.
After FACS sorting, FAP cells and SC cells were cultured on collagen Type I coated tissue culture flasks at 37° C. and 5% CO2 in a serum-free proliferation medium (SFM1). Purities of SCs and FAPs were assessed at the end of each passage by measuring the expression of ITGA7 and ITGA5 via flow cytometry as described below.
Sorted SCs and FAPs were stained with ITGA7-PE and […]. Subsequently, cells were washed and analyzed on a MACSQuant 10 flow analyzer (Miltenyi). Unstained cells were used as a negative control, and to define gating parameters. For the compound screenings (FIG. 2A), percentage of SCs relative to FAPs was determined after one culture passage.
These informed the selection of compounds to favor the proliferation of either of the two cell types. Increasing or decreasing the concentration of growth factors targeting these receptors, or adding compounds that target downstream pathways, altered the growth of SCs relative to FAPs (FIG. 2A, FIG. 2B). As only SCs and FAPs were present in the cell cultures of FIG. 2A and 2B, measuring the relative amount (ratio) of SCs likewise provides information about the relative amount (ratio) of FAPs in the respective media. The ratio of SCs in the respective cell media was normalized against a control ratio (Ctrl; set at 1) which means that a promotion of SCs results in an increase of SCs compared to the control culture (>1), whereas a relative decrease of SCs in the medium compared to the control culture (<1) denotes at the same time for a promotion of FAP proliferation in the respective media.

[2] = system: SCs and FAPs; assay: Long-term proliferation assay of SC/FAP mixtures on Laminin 521 with different media (FIGS. 4A-4C); details: Laminin 521 coating
Procedure: (§1) Cells were isolated, purified and cultured as described in Example 1. For long-term proliferation assays, mixtures of SCs and FAPs were cultured on different coatings (FIG. 3) or on Laminin 521 with different media (FIGS. 4A-4C). After every passage, the ratio of SCs to FAPs was measured as the ratio of ITGA7+/ITGA5−cells (SCs) to ITGA7−/ITGA5+cells (FAPs) via flow cytometry, as described in Example 1.
Using Laminin 521 as a coating, we further used the previously identified compounds to adapt the base media (Ctrl) to favor the growth of SCs over FAPs (FIGS. 4A-4C).

[3] = system: SCs and FAPs; assay: Long-term proliferation assay of SC/FAP mixtures on different coatings (FIG. 3); details: compound applied as culture vessel coating, measured after every passage by ITGA7/ITGA5 flow cytometry
Procedure: as §1
Using long-term proliferation assays, combined with flow cytometry for ITGA7/ITGA5, we tested different compounds including extracellular matrix proteins tissue culture vessel coatings, and measured percentage of SCs over time in a cell culture that contains SCs and FAPs.

[4] = single media adaptation of base media (Ctrl): 10× HGF or T3 added

Molecule	growth of SCs relative to FAPs (ratio of SCs normalized against control ratio, Ctrl set at 1) [1]	percentage of SCs in total cells (SCs and FAPs) over long-term proliferation [3]	further results
C[C@H](NC(=O)Cc1cc(F)cc(F)c1)C(=O)N[C@H](C(=O)OC(C)(C)C)c1ccccc1 [DAPT]	specifically promoted the proliferation of SCs	–	–
C[C@]12CCC(=O)C=C1CC[C@@H]1[C@@H]2[C@@H](O)C[C@@]2(C)[C@H]1CC[C@]2(O)C(=O)CO [HC, Hydrocortisone]	specifically promoted the proliferation of SCs	–	–
COc1ccc2c(c1)c(CC(=O)O)c(C)n2C(=O)c1ccc(Cl)cc1 [IC, Indomethacin]	specifically promoted the proliferation of SCs	–	–
C[S+]([O-])c1ccc(-c2nc(-c3ccc(F)cc3)c(-c3ccncc3)[nH]2)cc1 (stereo not shown) [SB203580, 4-{4-(4-Fluorophenyl)-2-[4-(methanesulfinyl)phenyl]-1H-imidazol-5-yl} pyridine]	specifically promoted the proliferation of SCs	–	–
N[C@@H](Cc1cc(I)c(Oc2ccc(O)c(I)c2)c(I)c1)C(=O)O [T3, Triiodothyronine, reference compound]	specifically promoted the proliferation of SCs	–	relative growth/proliferation of SCs compared to FAPs [2, 4]: promoted the relative growth/proliferation of SCs compared to FAPs
Interleukin 6 [IL-6]	specifically promoted the proliferation of FAPs	–	–
Laminin 521: extracellular matrix protein used as tissue culture vessel coating	–	the percentage of SCs remained high	percentage of SCs in total cells (SCs and FAPs) over long-term proliferation ([3]; listed as laminin 521): allow for maintaining high percentages of SCs during proliferation
collagen	–	the proportion of FAPs increased quickly over 3 passages	percentage of SCs in total cells (SCs and FAPs) over long-term proliferation ([3]; listed as Collagen): favor proliferation of FAPs
fibroblast growth factor 2 [FGF2]	specifically promoted the proliferation of SCs	–	–
fibronectin	–	the proportion of FAPs increased quickly over 3 passages; also recorded: favor proliferation of FAPs	–
hepatocyte growth factor [HGF]	specifically promoted the proliferation of SCs	–	relative growth/proliferation of SCs compared to FAPs [2, 4]: promoted the relative growth/proliferation of SCs compared to FAPs
B1	–	the percentage of SCs remained high	percentage of SCs in total cells (SCs and FAPs) over long-term proliferation ([3]; listed as Vitronectin): allow for maintaining high percentages of SCs during proliferation
B2	specifically promoted the proliferation of FAPs	–	relative growth/proliferation of SCs compared to FAPs ([2]; single media adaptation 0× PDGF-bb (PDGF-bb absent from base media)): promoted the relative growth/proliferation of SCs compared to FAPs
